Source: patent US8470892B2, “Method of inducing neovascularization” (priority 2010, dated 2013)

What was measured:
complement system [1] = assay: Dependence of PEG-8 induced CNV on complement: depletion with Cobra Venom Factor; type: in vivo, mice
Procedure: To investigate dependence of PEG-8 induced CNV on complement system activation, the complement system in the mice was depleted by intraperitoneal administration of Cobra Venom Factor. Four groups of animals were used (n=5 mice in each group). Group 1 and 2 were treated intraperitoneal with 4 U of cobra venom factor as described in the inventors' previous publication for 2 days before and every day after subretinal injections. Group 3 and 4 were injected intraperitoneal with vehicle (0.9% Sodium Chloride).
The mice were then injected with subretinal PEG-8 and investigated at day 5 after treatment. […] RPE-choroids of these mice were stained for MAC by IHC and investigated flat mounts using confocal microscopy. Areas of high MAC deposition in animals treated with saline (FIG. 4B) were found but not in CVF treated group (FIG. 4C).

Male C57BL/6 mice = assay: CNV induction by subretinal injection of PEG-8 (FITC-dextran perfused RPE-choroid-sclera flat mounts); type: in vivo
Procedure: Male C57BL/6 mice (7-9 weeks old) were anesthetized with Ketamine (80 mg/kg) and Xylazine (20 mg/kg) prior to subretinal injection. One eye was decompressed with 27G needle by inserting the needle through the limbus and sclera. Microinjector UMP3 equipped with Nanofil syringe 100 μL and 33G blunt needle (Word Precision Instruments) was used for injections. The needle was inserted into the incision created by decompression. Movement of the needle was stopped when light resistance was felt by operator. Solutions (single injection of 2 μL) were injected slowly for 5 seconds in the subretinal space. All manipulations were performed under visual control using microscope. Detachment of the retina was visible through the lens. The second eyes of mice were not injected.
To investigate dose dependent effect of PEG-8 (Polyethylene glycol 400) the inventors divided the animals into 7 groups: one control group (n=3 mice) which was not treated at all, group 2 (n=3 mice) received a single subretinal injection of vehicle (2 μL of 0.9% sterile sodium chloride), and five experimental groups which were injected with different doses of PEG-8: 2.0 mg, 1.0 mg, 0.5 mg, 0.25 mg and 0.125 mg. PEG-8 was dissolved in vehicle before injection. Doses of PEG-8 were delivered to the one experimental eye in 2 μL respectively. To determine optimal dose of PEG-8, the inventors performed histological examination and investigation of flat mounted RPE-choroid-sclera complexes after perfusion of animals with FITC-dextran solution at day 14 after injection.
To investigate the time course of CNV after PEG-injection, the animals were injected with 1.0 mg of PEG-8 subretinally and 5 mice from each group were sacrificed at day 1, 3, 5, 7, 14, 21, 28, and 42 post-injection. […] CNV reached maximal size at day 5 and was present until at least day 42.
To evaluate the CNV size, the animals were perfused through their heart with 0.75 ml of phosphate-buffered saline (PBS) containing 50 mg/ml of fluorescein-labeled dextran (FITC-Dextran, 2 million average mw) before they were sacrificed. The eyes were harvested and fixed for 4 hours in 10% phosphate buffered formalin and RPE-choroid-sclera flat mounts were prepared. The RPE-choroid-sclera complexes were mounted in ProLong Antifade reagent with the sclera facing down and were examined under a ZEISS LSM 510 laser confocal microscope.
Confocal microscopy of flat mounted RPE-choroids perfused with FITC-dextran was performed and investigated with semi thin (1 μm) embedded sections at day 5 after injection when CNV was fully developed. […] After PEG-8 injection, CNV was located between two layers of RPE cells in subretinal space (FIGS. 3B, D, F). No vessels originated from retina was found (FIG. 3D). 5 μm paraffin section of control (saline) and PEG-8 injected mice at day 1 were investigated, 3 and 5 after treatment. RPE cells in control groups formed single layer of cells and endothelial cells were found within choroid (FIG. 3G). Starting from day 1 after PEG-8 treatment, zones of affected RPE cell structure were discovered with increased size, irregular shape and presence of space between neighboring RPE cells (FIG. 3H). Isolectin-IB4 positively labeled cells located between affected RPE cells were found at day 1, 3 and 5 after injection (FIGS. 3H-J). Isolectin-IB4 positive had contact with choroidal Isolectin-IB4 positive capillaries and formed vessels in subretinal tissue between existing and newly formed RPE cell layers (FIG. 3J).

complement system [2] = assay: Activation of the complement system by PEG-8 in serum and RPE-choroid; type: in vivo, mice
Procedure: Activation of the complement system by PEG-8 was also studied in the RPE-choroid and in the blood. PEG-8 or saline was injected subretinally and animals were sacrificed at day 1, 3 and 5 after treatment. Total complement activation was studied in the serum. Levels of C3 split products and MAC were investigated in RPE-choroid tissue. […] PEG-8 and saline injected animals at day 3 and 5 had the same levels of total C3 (43 kDa and 23 kDA), but levels of C3 (43 kDa) were higher in PEG-8 treated animals compared to saline injected mice (FIGS. 5C, D).

VEGF = VEGF levels by ELISA in posterior part of the eyes after PEG-8; type: in vivo, mice
[3] = subretinal PEG-8, day 1, 3 and 5

Substance | total complement activity in serum vs saline injected animals (complement system [1]; 4 U CVF intraperitoneal, day 5 after subretinal PEG-8, p<0.05) | reduction of CNV size (area of FITC-dextran perfused vessels) (complement system [1]; CVF intraperitoneal, PEG-8 induced CNV, day 5, p<0.05) [fold] | MAC positive fluorescence in RPE-choroid, saline treated animals compared to CVF injected mice (complement system [1]; IHC flat mounts, day 5, p<0.05) | CNV size and frequency compared between doses (Male C57BL/6 mice; 1.0 mg dose, day 14) | frequency of CNV (Male C57BL/6 mice; 1.0 mg subretinal, day 14 after injection) | CNV present until (Male C57BL/6 mice; 1.0 mg subretinal, time course) [days] | first signs of CNV detected (Male C57BL/6 mice; 1.0 mg subretinal, time course) [days] | time at which CNV reached maximal size (Male C57BL/6 mice; 1.0 mg subretinal, time course) [days] | damage of RPE-choroid after subretinal injection (Male C57BL/6 mice; compared to laser treatment or surgical procedures) | occurrence of CNV (Male C57BL/6 mice; doses 2.0, 1.0, 0.5, 0.25 and 0.125 mg subretinal, day 14) | MAC levels in RPE-choroid vs saline treated animals (Western blotting) (complement system [2]; all investigated time points (day 1, 3, 5)) | C3 split products levels in RPE-choroid vs saline injected mice (complement system [2]; day 1 post-injection only) | levels of C3 (43 kDa) vs saline injected mice (complement system [2]; day 3 and 5) | levels of total C3 (43 kDa and 23 kDA) vs saline (complement system [2]; day 3 and 5) | alternative complement activity in mouse serum (complement system [2]; [3]) | total complement activity in mouse serum (complement system [2]; [3]) | VEGF in intra- and extracellular fraction of proteins from posterior part of the eyes (VEGF)
CVF | significantly reduced | 3 | significantly higher | – | – | – | – | – | – | – | – | – | – | – | – | – | –
Polyethylene glycol 400 [PEG-8] | – | – | – | largest size and frequency | 4.4 sites of CNV per eye | ≥ 42 | 3 | 5 | much smaller | CNV in all investigated groups | approximately three fold higher | three-fold increase | higher | same levels | did not affect | did not affect | increase of VEGF
